Marks after values point to notes of the source that are not given here. Starred links: 1 amine or outer side, 2 acyl side, 3 side chain; linkers in the order of their positions; H or OH if unused. Non-standard residues stand in square brackets, D forms with d. Residues, ends and D or L forms follow the SMILES beside them. Groups on a side chain read outwards from the residue. *: point of attachment. C18 diacid = O=C(O)CCCCCCCCCCCCCCCCC(=O)*; αMePhe(2-F) = C[C@](N)(Cc1ccccc1F)C(=O)O; γGlu = O=C(O)[C@H](CCC(=O)[*:2])N[*:1]; AEEA = NCCOCCOCC(=O)O; Aib = CC(C)(N)C(=O)O
What was measured:
GCGR = target: T1, GCGR (Homo sapiens, UniProt P47871); test: In vitro cell activity, cAMP production in HEK293 cells expressing GCGR; type: cell-based
T1 construct: expressed in transfected cells; host or cells: HEK293 (HEK293-GCGR)
T1 sequence (P47871 26-477, species assumed): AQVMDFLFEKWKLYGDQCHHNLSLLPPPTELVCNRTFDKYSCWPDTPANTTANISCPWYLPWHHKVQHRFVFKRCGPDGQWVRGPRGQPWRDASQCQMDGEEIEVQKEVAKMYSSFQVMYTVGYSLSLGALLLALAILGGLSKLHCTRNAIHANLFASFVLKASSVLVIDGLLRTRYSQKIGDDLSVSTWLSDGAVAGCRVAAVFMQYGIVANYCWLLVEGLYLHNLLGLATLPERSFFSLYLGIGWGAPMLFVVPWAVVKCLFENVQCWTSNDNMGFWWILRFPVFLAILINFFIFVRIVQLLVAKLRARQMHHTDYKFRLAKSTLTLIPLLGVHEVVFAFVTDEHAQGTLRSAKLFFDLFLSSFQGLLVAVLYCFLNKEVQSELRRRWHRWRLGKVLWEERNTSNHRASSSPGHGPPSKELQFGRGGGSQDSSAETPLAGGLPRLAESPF
Summary of the method: (§1)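 Assay format: cells at 4×10^5 cells/mL, cAMP sensed by d2/cryptate FRET pair, dual-wavelength read at 665 and 620 nm. Potency expressed as EC50 from nonlinear fitting.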

GLP-1R = target: T2, GLP-1R (Homo sapiens, UniProt P43220); test: In vitro cell activity, cAMP production in HEK293 cells expressing GLP-1R; type: cell-based
T2 construct: expressed in transfected cells; host or cells: HEK293 (HEK293-GLP-1R)
T2 sequence (P43220 24-463, species assumed): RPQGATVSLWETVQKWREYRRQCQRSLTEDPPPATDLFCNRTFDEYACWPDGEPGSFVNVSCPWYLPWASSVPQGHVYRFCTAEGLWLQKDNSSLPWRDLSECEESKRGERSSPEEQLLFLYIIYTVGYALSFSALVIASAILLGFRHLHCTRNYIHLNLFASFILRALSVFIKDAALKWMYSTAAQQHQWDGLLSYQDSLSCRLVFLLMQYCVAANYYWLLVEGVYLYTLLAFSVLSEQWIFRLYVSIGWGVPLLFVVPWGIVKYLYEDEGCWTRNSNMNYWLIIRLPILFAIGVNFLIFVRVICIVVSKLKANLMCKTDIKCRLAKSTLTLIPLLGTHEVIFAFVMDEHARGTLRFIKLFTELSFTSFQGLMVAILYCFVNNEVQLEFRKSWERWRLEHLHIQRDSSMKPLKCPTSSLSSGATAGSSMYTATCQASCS
Summary of the method: as §1

GIPR = target: T3, GIPR (Homo sapiens, UniProt P48546); test: In vitro cell activity, cAMP production in HEK293 cells expressing GIPR; type: cell-based
T3 construct: expressed in transfected cells; host or cells: HEK293 (HEK293-GIPR)
T3 sequence (P48546 22-466): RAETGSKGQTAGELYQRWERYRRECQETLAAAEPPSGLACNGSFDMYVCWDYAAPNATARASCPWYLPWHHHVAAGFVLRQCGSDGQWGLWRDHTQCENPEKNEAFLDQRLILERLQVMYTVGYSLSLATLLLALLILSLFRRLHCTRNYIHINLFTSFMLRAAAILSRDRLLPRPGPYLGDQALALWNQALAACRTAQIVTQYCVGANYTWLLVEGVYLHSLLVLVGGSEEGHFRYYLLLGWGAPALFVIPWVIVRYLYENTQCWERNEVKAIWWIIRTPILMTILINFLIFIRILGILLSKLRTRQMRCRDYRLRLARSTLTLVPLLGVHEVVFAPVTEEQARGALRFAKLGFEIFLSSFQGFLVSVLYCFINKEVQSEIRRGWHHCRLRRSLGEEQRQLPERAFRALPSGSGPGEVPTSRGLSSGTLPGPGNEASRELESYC
Summary of the method: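 cAMP accumulation is quantified by homogeneous TR-FRET (cAMP-d2 plus anti-cAMP cryptate) in GIPR-expressing HEK293 cells seeded from a 4×10^5 cells/mL suspension and treated with compound. The signal ratio is plotted against concentration and fitted to a four-parameter curve to give EC50.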

[1] = Glucose tolerance assessment in normal C57BL/6 mice (Example 5); type: in vivo; settings: for Blood glucose level (mM) 15 min / Blood glucose level (mM) 30 min / Blood glucose level (mM) 60 min / Blood glucose level (mM) 90 min / Blood glucose level (mM) 0 min / AUC0-90 min: 3 nmol/kg s.c. single dose, 24 h after administration; for Blood glucose level (mM) 15 min: 15 min after 2 g/kg glucose i.p.; for Blood glucose level (mM) 30 min: 30 min after 2 g/kg glucose i.p.; for Blood glucose level (mM) 60 min: 60 min after 2 g/kg glucose i.p.; for Blood glucose level (mM) 90 min: 90 min after 2 g/kg glucose i.p.; for Blood glucose level (mM) 0 min: basal before 2 g/kg glucose i.p.; for AUC0-90 min: blood glucose AUC, 2 g/kg glucose i.p.
Summary of the method: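 Normal C57BL/6 mice given a single dose, fasted 12 h starting 12 h post-dose, then challenged with 2 g/kg glucose i.p. Tail-vein glucose measured at baseline and 15, 30, 60, 90 min. AUC0~90min calculated from the glucose–time curve per dose group.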

[2] = Pharmacokinetic study in rats, single subcutaneous injection; settings: male, Sprague Dawley, in vivo, sc, rat, 50 nmol/kg single subcutaneous injection, plasma; for half-life: read-out: T1/2 (converted); for Tmax: read-out: Tmax
Procedure: The pharmacokinetic study of each polypeptide compound prepared in Example 1 was conducted using male Sprague Dawley rats. There were 3 male rats in each group. […] The dose was 50 nmol/kg, and a single subcutaneous injection was given (see Table 3 for specific peptide compounds). After administration, plasma was collected on the specified days and time points, and the concentration of each peptide compound in the plasma was detected by LC-MS/MS method. The pharmacokinetic parameters were obtained based on the concentration data, which were used to describe the pharmacokinetic properties of the peptide in rats after subcutaneous injection. Table 3: Summary of pharmacokinetic parameters of some triple-target peptides in rats

SMILES	EC50 (GCGR) [pM]	EC50 (GLP-1R) [pM]	EC50 (GIPR) [pM]	Blood glucose level (mM) 15 min [1] [mM]	Blood glucose level (mM) 30 min [1] [mM]	Blood glucose level (mM) 60 min [1] [mM]	Blood glucose level (mM) 90 min [1] [mM]	Blood glucose level (mM) 0 min [1] [mM]	AUC0-90 min [1]	AUC(0-inf) [2] [ng·h/mL]	AUC(0-t) [2] [ng·h/mL]	Cmax [2] [ng/mL]	half-life [2] [h]	Tmax [2] [h]	improvement of glucose tolerance compared with LY3298176 ([1]; 24 hours after a single administration, 3 nmol/kg)
CC[C@H](C)[C@H](NC(=O)[C@H](Cc1ccccc1)NC(=O)[C@H](CCC(=O)O)NC(=O)[C@H](CCCNC(=N)N)NC(=O)[C@H](CCC(N)=O)NC(=O)[C@H](CCCNC(=N)N)NC(=O)[C@H](CCCCNC(=O)COCCOCCNC(=O)CC[C@H](NC(=O)CCCCCCCCCCCCCCCCCCC(=O)O)C(=O)O)NC(=O)[C@H](CCC(=O)O)NC(=O)[C@H](CC(=O)O)NC(=O)[C@H](CC(C)C)NC(=O)[C@H](CC(C)C)NC(=O)[C@@H](NC(=O)[C@H](CO)NC(=O)[C@H](Cc1ccc(O)cc1)NC(=O)[C@H](CC(=O)O)NC(=O)[C@H](CO)NC(=O)[C@@H](NC(=O)[C@](C)(Cc1ccccc1F)NC(=O)[C@@H](NC(=O)CNC(=O)[C@H](Cc1c[nH]cn1)NC(=O)C(C)(C)NC(=O)[C@@H](N)Cc1ccc(O)cc1)[C@@H](C)O)[C@@H](C)O)[C@@H](C)CC)C(=O)N[C@@H](CCC(=O)O)C(=O)N[C@@H](Cc1c[nH]c2ccccc12)C(=O)N[C@@H](CC(C)C)C(=O)N[C@@H](CC(C)C)C(=O)N[C@@H](C)C(=O)NCC(=O)NCC(=O)N1CCC[C@H]1C(=O)N[C@@H](CO)C(=O)N[C@@H](CO)C(=O)NCC(=O)N[C@@H](C)C(=O)N1CCC[C@H]1C(=O)N1CCC[C@H]1C(=O)N1CCC[C@H]1C(=O)N[C@@H](CO)C(=O)O [HEC-PT96]	192	158	150	13.0 ± 2.9	10.8 ± 3.2	7.9 ± 1.6	6.2 ± 1.3	4.2 ± 0.6	798.9±146.0^a	40900 ± 1990	40300 ± 1930	840 ± 41.4	17 ± 0.65	25 ± 2.3	–
CC[C@H](C)[C@H](NC(=O)[C@H](CCCCN)NC(=O)[C@H](CC(=O)O)NC(=O)[C@H](CCCCNC(=O)COCCOCCNC(=O)CC[C@H](NC(=O)CCCCCCCCCCCCCCCCC(=O)O)C(=O)O)NC(=O)[C@H](CC(C)C)NC(=O)[C@@H](NC(=O)[C@H](CO)NC(=O)[C@H](Cc1ccc(O)cc1)NC(=O)[C@H](CC(=O)O)NC(=O)[C@H](CO)NC(=O)[C@@H](NC(=O)[C@](C)(Cc1ccccc1F)NC(=O)[C@@H](NC(=O)CNC(=O)[C@H](CCC(N)=O)NC(=O)C(C)(C)NC(=O)[C@@H](N)Cc1ccc(O)cc1)[C@@H](C)O)[C@@H](C)O)[C@@H](C)CC)C(=O)N[C@@H](C)C(=O)N[C@@H](CCC(N)=O)C(=O)N[C@@H](CCC(N)=O)C(=O)N[C@@H](C)C(=O)N[C@@H](Cc1ccccc1)C(=O)N[C@H](C(=O)N[C@@H](CCC(=O)O)C(=O)N[C@@H](Cc1ccc(O)cc1)C(=O)N[C@@H](CC(C)C)C(=O)N[C@@H](CC(C)C)C(=O)N[C@@H](CCC(=O)O)C(=O)NCC(=O)NCC(=O)N1CCC[C@H]1C(=O)N[C@@H](CO)C(=O)N[C@@H](CO)C(=O)NCC(=O)N[C@@H](C)C(=O)N1CCC[C@H]1C(=O)N1CCC[C@H]1C(=O)N1CCC[C@H]1C(=O)N[C@@H](CO)C(N)=O)[C@@H](C)CC [HEC-PT113] (H-Y[Aib]QGT[αMePhe(2-F)]TSDYSILK([AEEA-γGlu-C18 diacid])DKIAQQAFIEYLLEGGPSSGAPPPS-NH2)	172	103	18.8	12.6 ± 1.7	8.0 ± 1.0	7.9 ± 1.3	6.7 ± 0.8	4.6 ± 0.9	743.5±48.5^a	27900 ± 4180	27700 ± 4110	714 ± 63.2	11 ± 0.62	13 ± 9.9	improved glucose tolerance in mice better than the positive control LY3298176

— EP4596574A1, “GLP-1/GCG/GIP TRIPLE-RECEPTOR AGONIST AND USE THEREOF” (Sunshine Lake Pharma Co., Ltd., priority 2022, dated 2024)
